Reference: ChEMBL document CHEMBL1201862, “PubChem BioAssay data set” (2004)
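Five concentrations, 48 hours, 96-well plates. GI50 is the concentration that inhibits growth by half.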 Activity calls are given as the source filed them. No stated cut-off is given here; in the data, active = GI50 up to about 1.1 µM and inactive = higher.

How the values were obtained:
Assay in all cases: NCI tumour cell line growth inhibition, 48 h
UACC-62 = system: UACC-62
UACC-257 = system: UACC-257
NCI-H226 = system: NCI-H226
U-251 = system: U-251
HOP-62 = system: HOP-62
NCI-H460 = system: NCI-H460
COLO 205 = system: COLO 205
SN12C = system: SN12C
SNB-19 = system: SNB-19
HL-60 = system: HL-60
SK-MEL-2 = system: SK-MEL-2
SK-MEL-28 = system: SK-MEL-28
CCRF-CEM = system: CCRF-CEM
SR = system: SR
ACHN = system: ACHN
HCT-116 = system: HCT-116
Malme-3M = system: Malme-3M
MOLT-4 = system: MOLT-4
RPMI-8226 = system: RPMI-8226
M14 = system: M14

SMILES	GI50 (UACC-62)	GI50 (UACC-257)	GI50 (NCI-H226)	GI50 (U-251)	GI50 (HOP-62)	GI50 (NCI-H460)	GI50 (COLO 205)	GI50 (SN12C)	GI50 (SNB-19)	GI50 (HL-60)	GI50 (SK-MEL-2)	GI50 (SK-MEL-28)	GI50 (CCRF-CEM)	GI50 (SR)	GI50 (ACHN)	GI50 (HCT-116)	GI50 (Malme-3M)	GI50 (MOLT-4)	GI50 (RPMI-8226)	GI50 (M14)
CN(C)c1ccc(/C=C(\C#N)c2nc(-c3cc4ccccc4oc3=O)cs2)cc1	8.61 µM (inactive)	> 50 µM (inactive)	13.6 µM (inactive)	6.89 µM (inactive)	5.93 µM (inactive)	> 50 µM (inactive)	> 50 µM (inactive)	> 50 µM (inactive)	13.2 µM (inactive)	> 50 µM (inactive)	12 µM (inactive)	> 50 µM (inactive)	> 50 µM (inactive)	> 50 µM (inactive)	13.3 µM (inactive)	20 µM (inactive)	4.65 µM (inactive)	> 50 µM (inactive)	> 50 µM (inactive)	15.7 µM (inactive)
CC1=NN(C(=O)c2ccccc2O)C(c2ccccc2Cl)C1C(=O)Nc1ccccc1 (stereo not given)	< 0.0197 µM (active)	0.283 µM (active)	0.0614 µM (active)	< 0.0213 µM (active)	0.262 µM (active)	0.0964 µM (active)	5.26 µM (inactive)	0.0224 µM (active)	0.0306 µM (active)	0.161 µM (active)	4.74 µM (inactive)	40.4 µM (inactive)	0.0288 µM (active)	< 0.0322 µM (active)	0.0238 µM (active)	< 0.0196 µM (active)	0.0565 µM (active)	< 0.0302 µM (active)	0.0726 µM (active)	0.054 µM (active)
Nc1n[nH]c(N)n1 [GUANAZOLE]	2620 µM (inactive)	6430 µM (inactive)	5860 µM (inactive)	3800 µM (inactive)	2360 µM (inactive)	3270 µM (inactive)	> 8990 µM (inactive)	4930 µM (inactive)	9980 µM (inactive)	1420 µM (inactive)	> 9790 µM (inactive)	> 6150 µM (inactive)	1720 µM (inactive)	3300 µM (inactive)	1890 µM (inactive)	5980 µM (inactive)	9100 µM (inactive)	3170 µM (inactive)	4670 µM (inactive)	3310 µM (inactive)
CC(=O)Nc1ccc(-c2nc3ccccc3s2)cc1I	22.6 µM (inactive)	> 100 µM (inactive)	7.96 µM (inactive)	25.1 µM (inactive)	15.6 µM (inactive)	49.4 µM (inactive)	89.3 µM (inactive)	36.6 µM (inactive)	24.3 µM (inactive)	> 100 µM (inactive)	50.4 µM (inactive)	> 100 µM (inactive)	> 100 µM (inactive)	> 100 µM (inactive)	26.5 µM (inactive)	1.16 µM (inactive)	34.8 µM (inactive)	> 100 µM (inactive)	> 100 µM (inactive)	36.8 µM (inactive)
C=C1[C@@H](O)C[C@@]23CC[C@@H]4[C@@]5(C)CC[C@@H](OC(C)=O)C(C)(C)[C@@H]5C[C@@H](OC5OC(COC(C)=O)C(O)C(O)C5O)[C@@]4(C)C2=CC[C@H]3[C@H]1C (stereo not given in full)	6.07 µM (inactive)	11.6 µM (inactive)	4.43 µM (inactive)	3.03 µM (inactive)	11.7 µM (inactive)	4.13 µM (inactive)	2 µM (inactive)	7.98 µM (inactive)	4.93 µM (inactive)	2.27 µM (inactive)	2.34 µM (inactive)	7.35 µM (inactive)	2.97 µM (inactive)	2.33 µM (inactive)	9.12 µM (inactive)	3.43 µM (inactive)	9.48 µM (inactive)	2.5 µM (inactive)	2.84 µM (inactive)	4.49 µM (inactive)
N/C(=N\O)N/N=C/c1ccc2c(c1)OCO2	13.5 µM (inactive)	39.5 µM (inactive)	10.8 µM (inactive)	36.6 µM (inactive)	26.6 µM (inactive)	27 µM (inactive)	4.74 µM (inactive)	34.4 µM (inactive)	62.7 µM (inactive)	18.2 µM (inactive)	22 µM (inactive)	46 µM (inactive)	19.4 µM (inactive)	7.87 µM (inactive)	20 µM (inactive)	21.1 µM (inactive)	17.5 µM (inactive)	24.8 µM (inactive)	21.2 µM (inactive)	13.5 µM (inactive)
COC(=O)c1c(C)[nH]c2c1C(=O)C(=O)c1nc(C)c(C)nc1-2	4.41 µM (inactive)	11 µM (inactive)	11.8 µM (inactive)	4.84 µM (inactive)	5.98 µM (inactive)	5.27 µM (inactive)	8.63 µM (inactive)	2.84 µM (inactive)	4.76 µM (inactive)	9.23 µM (inactive)	3.86 µM (inactive)	11.1 µM (inactive)	5.04 µM (inactive)	5.33 µM (inactive)	2.85 µM (inactive)	4.28 µM (inactive)	3.58 µM (inactive)	7.66 µM (inactive)	10.2 µM (inactive)	10.7 µM (inactive)
O=c1cc(-c2ccccc2)c2ccc(O)c(CN(CCCl)CCCl)c2o1	16.9 µM (inactive)	16.4 µM (inactive)	17.9 µM (inactive)	22.1 µM (inactive)	17.2 µM (inactive)	17.8 µM (inactive)	12.4 µM (inactive)	17.2 µM (inactive)	18.5 µM (inactive)	13.4 µM (inactive)	22.8 µM (inactive)	18.8 µM (inactive)	3.07 µM (inactive)	11.1 µM (inactive)	20.4 µM (inactive)	19.1 µM (inactive)	21 µM (inactive)	5.75 µM (inactive)	12.6 µM (inactive)	20.1 µM (inactive)
COC(=O)c1ccc(CCc2cc(O)ccc2O)cc1	14.8 µM (inactive)	13 µM (inactive)	9.29 µM (inactive)	7.46 µM (inactive)	12.2 µM (inactive)	37 µM (inactive)	23.9 µM (inactive)	7.98 µM (inactive)	12 µM (inactive)	0.959 µM (active)	18.8 µM (inactive)	16.6 µM (inactive)	0.67 µM (active)	2.44 µM (inactive)	13.3 µM (inactive)	10.4 µM (inactive)	8.75 µM (inactive)	1.77 µM (inactive)	0.847 µM (active)	10.6 µM (inactive)
CC(=C(C(=O)O)C(=O)O)c1cc(-c2cccs2)cc(-c2ccc(Cl)cc2)c1O	15.3 µM (inactive)	16.7 µM (inactive)	21.2 µM (inactive)	14.3 µM (inactive)	24.1 µM (inactive)	17.1 µM (inactive)	22.4 µM (inactive)	15.9 µM (inactive)	15.7 µM (inactive)	9.71 µM (inactive)	32.4 µM (inactive)	17.5 µM (inactive)	18.7 µM (inactive)	3.67 µM (inactive)	15.8 µM (inactive)	13.8 µM (inactive)	21.6 µM (inactive)	6.41 µM (inactive)	2.78 µM (inactive)	17.7 µM (inactive)
O=c1cc(/N=N\c2ccc(Br)cc2)[nH]c(=S)[nH]1	78.3 µM (inactive)	27 µM (inactive)	> 100 µM (inactive)	36.4 µM (inactive)	> 100 µM (inactive)	32.7 µM (inactive)	21.9 µM (inactive)	96.4 µM (inactive)	61 µM (inactive)	19.3 µM (inactive)	11.9 µM (inactive)	20.4 µM (inactive)	14.6 µM (inactive)	27.6 µM (inactive)	15.9 µM (inactive)	18.2 µM (inactive)	16.4 µM (inactive)	24.5 µM (inactive)	15.9 µM (inactive)	15.7 µM (inactive)
CC(=O)/C(=C(/Br)I)c1ccccc1	12.8 µM (inactive)	12.6 µM (inactive)	7.45 µM (inactive)	13.1 µM (inactive)	14.1 µM (inactive)	20.3 µM (inactive)	13.6 µM (inactive)	5.26 µM (inactive)	17.3 µM (inactive)	1.95 µM (inactive)	4.82 µM (inactive)	11.2 µM (inactive)	1.58 µM (inactive)	1.94 µM (inactive)	13 µM (inactive)	4.52 µM (inactive)	10.9 µM (inactive)	1.73 µM (inactive)	2.58 µM (inactive)	6.87 µM (inactive)
C=C(C)[C@@]1(O)CCCC[C@@H]1CC(Sc1ccccc1)Sc1ccccc1	41.9 µM (inactive)	20.2 µM (inactive)	16.3 µM (inactive)	21.1 µM (inactive)	16.5 µM (inactive)	13.9 µM (inactive)	16.4 µM (inactive)	16.4 µM (inactive)	18.5 µM (inactive)	15.2 µM (inactive)	12.8 µM (inactive)	18.1 µM (inactive)	23.4 µM (inactive)	14.1 µM (inactive)	37.6 µM (inactive)	12.5 µM (inactive)	12.6 µM (inactive)	9.08 µM (inactive)	11.3 µM (inactive)	17.9 µM (inactive)
CCOC(=O)CCc1ccc(NC(=O)/C=C/c2ccc([N+](=O)[O-])o2)cc1	2.12 µM (inactive)	0.798 µM (active)	4.34 µM (inactive)	2.12 µM (inactive)	3.27 µM (inactive)	2.34 µM (inactive)	1.52 µM (inactive)	1.43 µM (inactive)	9.82 µM (inactive)	0.166 µM (active)	2.06 µM (inactive)	0.773 µM (active)	0.177 µM (active)	0.155 µM (active)	1.34 µM (inactive)	0.685 µM (active)	1.49 µM (inactive)	0.22 µM (active)	0.286 µM (active)	0.92 µM (active)
